From US9353096B2, “Substituted phenylcarbamate compounds” (Hoffmann-La Roche Inc., priority 2012, dated 2016)
Counter-ions that a name gives are not always drawn.

Target: hTRPA1 (Homo sapiens, UniProt O75762)
Test: Dose response calcium flux (FLIPR) assay, ChanTest hTRPA1-CHO stably transfected cell line, cinnamaldehyde agonist
Type: cell-based
Conditions: CHO-K1 Tet-On hTRPA1 cells, 100 uM cinnamaldehyde agonist, 30 min preincubation
Description: Dose Response Assay:ChanTest hTRPA1-CHO Stably Transfected Cell Line
CHO-K1 Tet-On_HOMSA_TRPA1_Clone_20
Growth Media for CHO-K1 Tet-On_HOMSA_TRPA1_Clone_20 • Ham's F-12 with 10% tetracycline-free FBS • 1× penicillin-streptomycin • 1× glutamax • 0.01 mg/ml Blasticidin • 0.40 mg/ml Zeocin • The cell line doubling rate was ˜15 h. […] Experiments were run at 24 h post induction.
Plating Conditions CHOK1/TRPA1 Cells: • Harvested cells with 0.025% trypsin/EDTA. • Resuspended cells in growth media without selection antibiotics. • Measured cell density and diluted to 2.4×10^5 cells/ml in media containing 1 ug/ml Doxycycline Plate 25 ul/well into 384 well black/clear tissue culture-treated plates. • Incubated overnight at 37° C.
Replacement Buffer: Hank's Balanced Salt Solution, 20 mM HEPES along with 0.005% BSA and 2× Probenecid
Dye Loading Buffer: Cal-3 NW Calcium dye was prepared by dissolving the contents of one vial with […] Hank's Balanced Salt Solution containing 20 mM HEPES.
AP-18, stock 10 mM, prepare 3.5× compound dilution in a Compound Buffer (HBSS/20 mM HEPES/0.005% BSA)—final concentration 10 uM.
Preparation of Cinnamaldehyde (Agonist Addition): • FW=132.16 • Specific gravity=1.046 gm/cc • 1.32 gm/1.046 gm/cc=1.26 ml of stock • Add 1.74 ml DMSO=3.3 M stock • Working solution 4.5× (final 100 uM in Compound Buffer: HBSS/20 mM HEPES/0.005% BSA)
Compounds dilutions were prepared from 5 or 10 mM stock (100% DMSO): • Adjustments of volumes and concentrations were made at time of titration to reflect desired final assay concentrations. • Compounds were tested at either 20 μM three folds dilution 11 steps out or 30 μM two folds dilution 11 steps out. • 3 μl of diluted compound were transferred into Weidmann 384-well plate in duplicates side-by-side. • Compound plates were resuspended with 100 ul of HBSS/20 mM HEPES/0.005% BSA buffer (Compound Buffer): • column 1A-H: buffer/DMSO (bk) • column 2A-H: AP-18 (control antagonist for CHOK1 TRPA1 cells) • column 1I-P: ATP (control for CHOK1 teton cells) • column 2I-P: 2APB (control antagonist for CHOK1/TRPM8 cells).
Growth media was removed from the cell plates (20 ul) and 20 μl of the Replacement Buffer was added followed by addition of 25 μl of diluted dye. All three steps were performed using a Plate Washer BioTek 407. The plates were then incubated for 30′ at RT.
After incubation, both the cell and compound plates were brought to the FLIPR and 20 μl of the diluted compounds/antagonist/bk were transferred to the cell plates by the FLIPR. Plates were then incubated for 30′ at room temperature. After 30′ incubation, plates were returned to the FLIPR and 20 μl of 4.5× Cinnamaldehyde was added to the cell plates. During the compound addition as well as agonist addition, fluorescence readings were taken simultaneously from all 384 wells of the cell plate every 1.5 seconds. Five readings were taken to establish a stable baseline, then 20 μl of sample was rapidly (30 ul/sec) and simultaneously added to each well of the cell plate. The fluorescence was continuously monitored before, during and after sample/agonist addition for a total elapsed time of 100 seconds (compound addition) and 120 seconds (agonist addition). Responses (increase in peak fluorescence) in each well following agonist addition was determined. The initial fluorescence reading from each well, prior to ligand stimulation, was used a zero baseline value for the data from that well.

Sequence of hTRPA1 (O75762 whole entry): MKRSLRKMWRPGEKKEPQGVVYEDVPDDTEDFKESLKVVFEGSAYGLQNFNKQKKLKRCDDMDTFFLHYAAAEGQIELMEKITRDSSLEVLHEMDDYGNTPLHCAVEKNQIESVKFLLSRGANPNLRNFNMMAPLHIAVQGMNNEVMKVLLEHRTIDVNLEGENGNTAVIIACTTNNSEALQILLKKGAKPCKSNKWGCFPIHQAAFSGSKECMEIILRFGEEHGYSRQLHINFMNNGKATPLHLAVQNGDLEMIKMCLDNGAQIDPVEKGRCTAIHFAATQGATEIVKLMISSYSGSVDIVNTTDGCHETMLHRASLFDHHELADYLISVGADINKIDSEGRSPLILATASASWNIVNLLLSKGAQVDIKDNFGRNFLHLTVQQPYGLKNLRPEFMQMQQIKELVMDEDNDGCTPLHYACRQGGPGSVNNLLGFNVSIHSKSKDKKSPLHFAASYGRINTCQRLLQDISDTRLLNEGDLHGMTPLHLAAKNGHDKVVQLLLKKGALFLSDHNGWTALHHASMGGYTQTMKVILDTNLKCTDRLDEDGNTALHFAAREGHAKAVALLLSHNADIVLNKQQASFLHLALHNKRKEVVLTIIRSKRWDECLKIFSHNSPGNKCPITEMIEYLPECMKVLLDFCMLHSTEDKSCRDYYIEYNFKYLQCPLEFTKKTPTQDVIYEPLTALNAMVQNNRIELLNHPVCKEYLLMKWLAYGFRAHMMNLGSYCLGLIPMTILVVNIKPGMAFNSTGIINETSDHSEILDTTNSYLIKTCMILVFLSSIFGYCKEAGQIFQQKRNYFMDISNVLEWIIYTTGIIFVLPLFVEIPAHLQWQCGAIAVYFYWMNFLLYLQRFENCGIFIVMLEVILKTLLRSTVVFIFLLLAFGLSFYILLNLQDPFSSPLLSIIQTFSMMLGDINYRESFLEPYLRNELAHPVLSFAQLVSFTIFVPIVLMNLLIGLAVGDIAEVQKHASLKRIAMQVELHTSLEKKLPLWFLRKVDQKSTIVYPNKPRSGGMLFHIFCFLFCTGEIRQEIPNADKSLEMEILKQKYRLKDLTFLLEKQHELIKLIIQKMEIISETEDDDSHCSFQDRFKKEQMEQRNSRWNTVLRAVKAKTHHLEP

Structure (SMILES) | IC50
O=C(Nc1ccc(Cl)nc1)O[C@@H](CN1CCOC(c2cccc(C(F)(F)F)c2)C1)C(F)(F)F (stereo partly drawn) [Example 38, (6-Chloropyridin-3-yl)carbamic acid (S)-2,2,2-trifluoro-1-[2-3-trifluoromethylphenyl]-morpholin-4-ylmethyl]-ethyl ester hydrochloride] | 78 nM
O=C(Nc1ccc(Cl)cc1)O[C@@H](CN1CCO[C@H](c2ccc(C(F)(F)F)cc2)C1)C(F)(F)F [Example 29, (4-Chlorophenyl)-carbamic acid (S)-2,2,2-trifluoro-1-[(R)-2-(4-trifluoromethylphenyl)-morpholin-4-ylmethyl]-ethyl ester hydrochloride] | 7.64 nM
O=C(Nc1ccc(Cl)cc1)O[C@@H](CN1CCS(=O)(=O)[C@@H](c2cccc(C(F)(F)F)c2)C1)C(F)(F)F (single isomer, unassigned) [Example 19] | 191 nM
O=C(Nc1ccc(Cl)cc1)O[C@@H](CN1CCO[C@H](Cc2ccccc2)C1)C(F)(F)F [Example 9, (4-Chlorophenyl)-carbamic acid (S)-1-((R)-2-benzyl-morpholin-4-ylmethyl)-2,2,2-trifluoroethyl ester hydrochloride] | 121 nM
CC(=O)N1CCN(C[C@H](OC(=O)Nc2ccc(Cl)cc2)C(F)(F)F)CC1c1ccccc1 (stereo partly drawn) [Example 28, (4-Chlorophenyl)-carbamic acid (S)-1-(4-acetyl-3-phenylpiperazin-1-ylmethyl)-2,2,2-trifluoroethyl ester hydrochloride] | 4530 nM
O=C(Nc1ccc(Cl)cc1)O[C@@H](CN1CCO[C@@H](Cc2ccccc2)C1)C(F)(F)F (single isomer, unassigned) [Example 10, hydrochloride] | 3580 nM
COc1cccc([C@@H]2CN(C[C@H](OC(=O)Nc3ccc(Cl)cc3)C(F)(F)F)CCS2(=O)=O)c1 [Example 16, (4-Chlorophenyl)-carbamic acid (S)-2,2,2-trifluoro-1-[(R)-2-(3-methoxyphenyl)-1,1-dioxo-1λ^6-thiomorpholin-4-ylmethyl]ethyl ester] | 152 nM
CN1CCN(C[C@H](OC(=O)Nc2ccc(Cl)cc2)C(F)(F)F)CC1c1ccccc1 (stereo partly drawn) [Example 27, (4-Chlorophenyl)-carbamic acid (S)-2,2,2-trifluoro-1-(4-methyl-3-phenylpiperazin-1-ylmethyl)-ethyl ester hydrochloride] | 2620 nM
O=C(Nc1ccc(Cl)c(F)c1)O[C@@H](CN1CCS(=O)(=O)[C@H](c2cccc(C(F)(F)F)c2)C1)C(F)(F)F [Example 20, (4-Chloro-3-fluorophenyl)-carbamic acid (S)-1-[(R)-1,1-dioxo-2-(3-trifluoromethylphenyl)-1λ^6-thiomorpholin-4-ylmethyl]-2,2,2-trifluoroethyl ester] | 74.3 nM
COc1cccc([C@H]2CN(C[C@H](OC(=O)Nc3ccc(Cl)cc3)C(F)(F)F)CCO2)c1 (single isomer, unassigned) [Example 15] | 803 nM
O=C(C[C@@H](CN1CCO[C@@H](c2cccc(C(F)(F)F)c2)C1)C(F)(F)F)Nc1ccc(Cl)c(F)c1 [Example 40, (S)—N-(4-chloro-3-fluorophenyl)-4,4,4-trifluoro-3-[(S)-2-(3-trifluoromethylphenyl)-morpholin-4-ylmethyl]-butyramide] | 3060 nM

Continued, values first:

IC50 | Structure (SMILES)
8.5 nM | O=C(Nc1ccc(Cl)cc1)O[C@@H](CN1CCOC(c2ccc(F)c(C(F)(F)F)c2)C1)C(F)(F)F (stereo partly drawn) [Example 2, (4-Chlorophenyl)-carbamic acid (S)-2,2,2-trifluoro-1-[2-(4-fluoro-3-trifluoromethylphenyl)-morpholin-4-ylmethyl]-ethyl ester hydrochloride]
103 nM | CC(C)c1nccc([C@@H]2CN(C[C@H](OC(=O)Nc3ccc(Cl)c(F)c3)C(F)(F)F)CCO2)n1 [Example 25, (4-Chloro-3-fluorophenyl)-carbamic acid (S)-2,2,2-trifluoro-1-[(S)-2-(2-isopropylpyrimidin-4-yl)-morpholin-4-ylmethyl]-ethyl ester hydrochloride]
6.35 nM | O=C(Nc1ccc(Cl)c(F)c1)O[C@@H](CN1CCO[C@H](c2cccc(C(F)(F)F)c2)C1)C(F)(F)F [Example 13, (4-Chloro-3-fluorophenyl)-carbamic acid (S)-2,2,2-trifluoro-1-[(R)-2-(3-trifluoromethylphenyl)-morpholin-4-ylmethyl]-ethyl ester hydrochloride]
34.6 nM | O=C(Nc1ccc(Cl)c(F)c1)O[C@@H](CN1CCO[C@H](c2ccc(C(F)(F)F)cc2)C1)C(F)(F)F [Example 31, (4-Chloro-3-fluorophenyl)carbamic acid (S)-2,2,2-trifluoro-1-[(R)-2-(4-trifluoromethylphenyl)-morpholin-4-ylmethyl]-ethyl ester hydrochloride]
597 nM | O=C(Nc1ccc(Cl)c(F)c1)O[C@@H](CN1CCO[C@@H](c2cccc(Cl)c2)C1)C(F)(F)F [Example 8, (4-Chloro-3-fluorophenyl)-carbamic acid (S)-1-[(S)-2-(3-chlorophenyl)-morpholin-4-ylmethyl]-2,2,2-trifluoroethyl ester hydrochloride]
83.4 nM | O=C(Nc1ccc(Cl)cc1)O[C@@H](CN1CCOC(c2ccc(F)cc2)C1)C(F)(F)F (stereo partly drawn) [Example 42, (4-Chlorophenyl)carbamic acid (S)-2,2,2-trifluoro-1-[2-(4-fluorophenyl)-morpholin-4-ylmethyl]-ethyl ester hydrochloride]
17.8 nM | O=C(Nc1ccc(Cl)cc1)O[C@@H](CN1CCOC(c2cccc(Cl)c2)C1)C(F)(F)F (stereo partly drawn) [Example 43, (4-Chlorophenyl)-carbamic acid (S)-2,2,2-trifluoro-1-[2-(3-chlorophenyl)-morpholin-4-ylmethyl]-ethyl ester hydrochloride]
108 nM | O=C(Nc1ccc(Cl)cc1)O[C@@H](CN1CCO[C@@H](c2cccc(C(F)(F)F)c2)C1)C(F)(F)F [Example 12, (4-Chlorophenyl)-carbamic acid (S)-2,2,2-trifluoro-1-[(S)-2-(3-trifluoromethylphenyl)-morpholin-4-ylmethyl]-ethyl ester hydrochloride]
781 nM | O=C(Nc1ccc(Cl)c(F)c1)O[C@@H](CN1CCO[C@@H](c2ccc(C(F)(F)F)nc2)C1)C(F)(F)F (single isomer, unassigned) [Example 23, hydrochloride]
14.3 nM | O=C(Nc1ccc(Cl)c(F)c1)O[C@@H](CN1CCO[C@H](c2ccc(F)c(C(F)(F)F)c2)C1)C(F)(F)F [Example 3, (4-Chloro-3-fluorophenyl)-carbamic acid (S)-2,2,2-trifluoro-1-[(R)-2-(4-fluoro-3-trifluoromethylphenyl)-morpholin-4-ylmethyl]-ethyl ester hydrochloride]
37.6 nM | O=C(Nc1ccc(Cl)c(F)c1)O[C@@H](CN1CCO[C@H](c2ccc(F)c(F)c2)C1)C(F)(F)F [Example 34, (4-Chloro-3-fluorophenyl)-carbamic acid (S)-1-[(R)-2-(3,4-difluorophenyl)-morpholin-4-ylmethyl]-2,2,2-trifluoroethyl ester hydrochloride]
16.9 nM | O=C(Nc1ccc(Cl)c(F)c1)O[C@@H](CN1CCO[C@H](c2cc(Cl)cc(Cl)c2)C1)C(F)(F)F [Example 46, (4-Chloro-3-fluorophenyl)carbamic acid (S)-1-[(R)-2-(3,5-dichlorophenyl)-morpholin-4-ylmethyl]-2,2,2-trifluoroethyl ester hydrochloride]
8.09 nM | O=C(Nc1ccc(Cl)cc1)O[C@@H](CN1CCO[C@H](c2cc(Cl)cc(Cl)c2)C1)C(F)(F)F [Example 45, (4-Chlorophenyl)carbamic acid (S)-1-[(R)-2-(3,5-dichlorophenyl)-morpholin-4-ylmethyl]-2,2,2-trifluoroethyl ester hydrochloride]
